Assays:
[1] = Oral bioavailability in mouse administered as bid; format: ADME, organism-based; conditions: in vivo
Homo sapiens = assay: Oral bioavailability in human at 3 to 15 mg/day; format: ADME, organism-based; conditions: in vivo
[2] = Oral bioavailability in human; format: ADME, organism-based; conditions: in vivo
[3] = Half life in human at 25 mg, po administered through fat rich diet; format: ADME, organism-based; conditions: in vivo
[4] = Oral bioavailability in cancer patient at 75 mg, qd administered 5 days for every 2 weeks; format: ADME, organism-based; conditions: human, in vivo
[5] = Oral bioavailability in dog at 1 mg/kg; format: ADME, organism-based, Canis lupus familiaris; conditions: in vivo
[6] = Oral bioavailability in rat at 5 mg/kg; format: ADME, organism-based; conditions: in vivo
[7] = Apparent permeability across apical to basolateral side of human Caco2 cells at 5 uM after 120 mins by LC/MS/MS analysis; format: ADME, cell-based; conditions: Caco-2

COc1cc2ncnc3c2cc1OCCCCCN(C)Cc1ccc(Br)cc1N3 [JNJ-26483327]
bioavailability [1]: 80%

IVERMECTIN
F (Homo sapiens): 60%

CO[C@H]1/C=C/O[C@@]2(C)Oc3c(C)c(O)c4c(O)c(c(/C=N/N5CCN(C6CCCC6)CC5)c(O)c4c3C2=O)NC(=O)/C(C)=C\C=C\[C@H](C)[C@H](O)[C@@H](C)[C@@H](O)[C@@H](C)[C@H](OC(C)=O)[C@@H]1C [RIFAPENTINE]
bioavailability [2]: 70%

CO[C@H]1/C=C/O[C@@]2(C)Oc3c(C)c(O)c4c(O)c(c(/C=N/N5CCN(C)CC5)c(O)c4c3C2=O)NC(=O)/C(C)=C\C=C\[C@H](C)[C@H](O)[C@@H](C)[C@@H](O)[C@@H](C)[C@H](OC(C)=O)[C@@H]1C [RIFAMPIN]
bioavailability [2]: 50%

C=CC[C@@H]1/C=C(\C)C[C@H](C)C[C@H](OC)[C@H]2O[C@@](O)(C(=O)C(=O)N3CCCC[C@H]3C(=O)O[C@H](/C(C)=C/[C@@H]3CC[C@@H](O)[C@H](OC)C3)[C@H](C)[C@@H](O)CC1=O)[C@H](C)C[C@@H]2OC [TACROLIMUS ANHYDROUS]
bioavailability [2]: 15%

CO[C@H]1/C=C/O[C@@]2(C)Oc3c(C)c(O)c4c(=O)c(c5oc6cc(N7CCN(CC(C)C)CC7)cc(O)c6nc-5c4c3C2=O)NC(=O)/C(C)=C\C=C\[C@H](C)[C@H](O)[C@@H](C)[C@@H](O)[C@@H](C)[C@H](OC(C)=O)[C@@H]1C [RIFALAZIL]
half-life [3]: 100 h

CO[C@H]1C[C@@H]2CC[C@@H](C)[C@@](O)(O2)C(=O)C(=O)N2CCCC[C@H]2C(=O)O[C@H]([C@H](C)C[C@@H]2CC[C@@H](OC(=O)C(C)(CO)CO)[C@H](OC)C2)CC(=O)[C@H](C)/C=C(\C)[C@@H](O)[C@@H](OC)C(=O)[C@H](C)C[C@H](C)/C=C/C=C/C=C/1C [TEMSIROLIMUS]
bioavailability [4]: 1.5%

C=C[C@@H]1C[C@]1(NC(=O)[C@@H]1C[C@@H]2CN1C(=O)[C@H](C(C)(C)C)NC(=O)O[C@@H]1C[C@H]1CCCCCc1nc3ccc(OC)cc3nc1O2)C(=O)NS(=O)(=O)C1CC1 [GRAZOPREVIR ANHYDROUS]
bioavailability [5]: 13% | bioavailability [6]: 1%

CN1C/C=C/CCOc2cccc(c2)-c2ccnc(n2)Nc2cccc(c2)C1 [ZOTIRACICLIB]
Papp A→B at 2 h, 5 µM [7]: 28 ×10⁻⁶ cm/s

CO[C@H]1C[C@@H]2CC[C@@H](C)[C@@](O)(O2)C(=O)C(=O)N2CCCC[C@H]2C(=O)O[C@H]([C@H](C)C[C@@H]2CC[C@@H](OCCO)[C@H](OC)C2)CC(=O)[C@H](C)/C=C(\C)[C@@H](O)[C@@H](OC)C(=O)[C@H](C)C[C@H](C)/C=C/C=C/C=C/1C [EVEROLIMUS]
bioavailability [2]: 20%
